Key:
[1] = target: T1, Mitogen-activated protein kinase 14 (Homo sapiens, UniProt Q16539); assay: Inhibition of MAPK p38alpha assessed as activity remaining at 50 uM relative to control
[2] = target: T1, Mitogen-activated protein kinase 14; assay: Inhibition of MAPK p38alpha

T1 sequence (Q16539 whole entry): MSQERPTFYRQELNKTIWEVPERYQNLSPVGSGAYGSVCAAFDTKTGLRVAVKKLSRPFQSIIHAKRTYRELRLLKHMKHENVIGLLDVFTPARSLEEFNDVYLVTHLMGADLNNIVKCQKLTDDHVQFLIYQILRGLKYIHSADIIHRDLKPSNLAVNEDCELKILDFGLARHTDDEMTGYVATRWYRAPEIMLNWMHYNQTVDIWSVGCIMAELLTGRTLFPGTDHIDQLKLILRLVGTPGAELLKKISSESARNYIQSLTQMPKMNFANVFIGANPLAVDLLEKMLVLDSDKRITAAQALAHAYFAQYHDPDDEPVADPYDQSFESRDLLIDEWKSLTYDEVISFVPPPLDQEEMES

## Cn1cc(/C=C2/C(=O)NC(=O)N(CCc3ccccc3)C2=O)c2ccccc21
[1]
  Activity: 32%
[2]
  IC50: 17.1 µM

## Cc1cccc(-c2nc(Nc3ccc(C(=O)O)cc3)c3ccccc3n2)c1
[1]
  Activity: 34%
[2]
  IC50: 20.4 µM

## Nc1nc(Nc2ccccc2)sc1C(=O)c1ccccc1
[1]
  Activity: 8.1%
[2]
  IC50: 0.72 µM

## O=C1c2ccccc2C(=O)N1CCc1nc2c3c(-c4ccco4)c(-c4ccco4)oc3ncn2n1
[1]
  Activity: 39%
[2]
  IC50: > 30 µM

## NC(=O)c1ccc(Nc2nnc(-c3ccc(O)cc3)c3ccccc23)cc1
[1]
  Activity: 41%
[2]
  IC50: > 30 µM

## CCn1cc(/C=C2/Oc3c(ccc(O)c3CN3CCOCC3)C2=O)c2ccccc21
[1]
  Activity: 37%
[2]
  IC50: > 30 µM
